From patent US20250042889A1, “3CLPRO PROTEASE INHIBITOR” (SHANGHAI QILU PHARMACEUTICAL RESEARCH AND DEVELOPMENT …, priority 2021, published 2025)
Where two headings read alike, the source gives them in different places.

Molecular target: SARS-COV-2 3CLpro/Mpro protease (Severe acute respiratory syndrome coronavirus 2 (2019-nCoV) (SARS-CoV-2), UniProt P0DTD1)
Experiment: Inhibitory effect on SARS-COV-2 3CLpro/Mpro protease by fluorescence resonance energy transfer
Type: biochemical
Conditions: activity intervals A-D
[1] = read-out: IC50 (nM), Inhibition on SARS-CoV-2 3CLpro/Mpro protease
[2] = IC50 (nM), Inhibition on SARS-CoV-2 3CLpro/Mpro protease

| Structure (SMILES) | IC50 [1] | IC50 [2] |
| --- | --- | --- |
| C[C@@H]1CN(C(=O)c2cc(Br)cc([N+](=O)[O-])c2N[C@@H]2COCC[C@@H]2NC(=O)c2cncc3cc(Cl)ccc23)C[C@H](C)N1 [Example 228] | 10 to 50 nM |  |
| CNc1cncc(C(=O)N2CCC[C@@H](Nc3c(C(=O)N4CCC5(CCOC5)CC4)cc(Br)cc3[N+](=O)[O-])C2)c1 [Example 230] | < 10 nM |  |
| CNc1cncc(C(=O)N[C@H]2CCCC[C@H]2Nc2c(C(=O)N3CCO[C@@H](C)C3)cc(Br)cc2[N+](=O)[O-])c1 [Example 231] | 10 to 50 nM |  |
| CNc1cncc(C(=O)N2CCC[C@@H](Nc3c(C(=O)N4CC5COCC5C4)cc(Br)cc3[N+](=O)[O-])C2)c1 (some centres unmarked) [Example 232] | 10 to 50 nM |  |
| CNc1cncc(C(=O)N2CCC[C@@H](Nc3c(C(=O)N4C[C@@H](C)N(CCOC)[C@@H](C)C4)cc(Br)cc3[N+](=O)[O-])C2)c1 [Example 233] | 50 to 100 nM |  |
| CNc1cncc(C(=O)N[C@H]2CCOC[C@H]2Nc2c(C(=O)N3CCC[C@H](C)C3)cc(Br)cc2[N+](=O)[O-])c1 [Example 234] | 10 to 50 nM |  |
| CNc1cncc(C(=O)N2CCC[C@@H](Nc3c(C(=O)N4CCN(C5CCOCC5)CC4)cc(Br)cc3[N+](=O)[O-])C2)c1 [Example 235] | 10 to 50 nM |  |
| CNc1cncc(C(=O)N2CCC[C@@H](Nc3c(C(=O)N4CCC5(CC4)COC5)cc(Br)cc3[N+](=O)[O-])C2)c1 [Example 236] | 10 to 50 nM |  |
| CNc1cncc(C(=O)N[C@H]2CCCC[C@H]2Nc2c(C(=O)N3CCO[C@H](C)C3)cc(Br)cc2[N+](=O)[O-])c1 [Example 237] | 10 to 50 nM |  |
| CNc1cncc(C(=O)N2CCC[C@@H](Nc3c(C(=O)N4CCN(CCOC)[C@H](C)C4)cc(Br)cc3[N+](=O)[O-])C2)c1 [Example 238] | 10 to 50 nM |  |
| CNc1cncc(C(=O)N2CCC[C@@H](Nc3c(C(=O)N4CCC[C@H](OC)C4)cc(Br)cc3[N+](=O)[O-])C2)c1 [Example 239] | 10 to 50 nM |  |
| CNc1cncc(C(=O)N2CCC[C@@H](Nc3c(C(=O)N4CCC(O)(C(F)(F)F)CC4)cc(Br)cc3[N+](=O)[O-])C2)c1 [Example 240] | 10 to 50 nM |  |
| CNc1cncc(C(=O)N2CCC[C@@H](Nc3c(C(=O)N4CCC(C)(O)CC4)cc(Br)cc3[N+](=O)[O-])C2)c1 [Example 241] | 10 to 50 nM |  |
| CNc1cncc(C(=O)N2CCC[C@@H](Nc3c(C(=O)N4C[C@H](C)N(CCOC)[C@@H](C)C4)cc(Br)cc3[N+](=O)[O-])C2)c1 [Example 242] | 10 to 50 nM |  |
| CNc1cncc(C(=O)N2CCC[C@@H](Nc3c(C(=O)N4CC[C@H](OC)C4)cc(Br)cc3[N+](=O)[O-])C2)c1 [Example 244] | 10 to 50 nM |  |
| CNc1cncc(C(=O)N2C[C@H](Nc3c(C(=O)N4CCCCC4)cc(Br)cc3[N+](=O)[O-])C(C)(O)C2)c1 (some centres unmarked) [Example 245] | 50 to 100 nM |  |
| CC1(O)CN(C(=O)c2cncc(Br)c2)C[C@@H]1Nc1c(C(=O)N2CCCCC2)cc(Br)cc1[N+](=O)[O-] (some centres unmarked) [Example 246] | 10 to 50 nM |  |
| CNc1cncc(C(=O)N2CCC[C@@H](Nc3c(C(=O)N4CCN(CCOC)[C@@H](C)C4)cc(Br)cc3[N+](=O)[O-])C2)c1 [Example 247] | 10 to 50 nM |  |
| CNc1cncc(C(=O)N2CCC[C@@H](Nc3c(C(=O)N4CCC(C)CC4)cc(Br)cc3[N+](=O)[O-])C2)c1 [Example 248] | 10 to 50 nM |  |
| COCCN1CCN(C(=O)c2cc(Br)cc([N+](=O)[O-])c2N[C@@H]2CCCN(C(=O)[C@H]3CC(=O)N[C@@H](C)C3)C2)CC1 [Example 249] | 10 to 50 nM |  |

| Structure (SMILES) | IC50 [1] | IC50 [2] |
| --- | --- | --- |
| CNc1cncc(C(=O)N2CCC[C@@H](Nc3c(C(=O)N4CCC5(CCOCC5)CC4)cc(Br)cc3[N+](=O)[O-])C2)c1 [Example 250] | 10 to 50 nM |  |
| CNc1cncc(C(=O)N2CCC[C@@H](Nc3c(C(=O)N4C[C@H](C)C[C@H](C)C4)cc(Br)cc3[N+](=O)[O-])C2)c1 [Example 251] | 50 to 100 nM |  |
| CNc1cncc(C(=O)N2CCC[C@@H](Nc3c(C(=O)N4CCC(C)(C)CC4)cc(Br)cc3[N+](=O)[O-])C2)c1 [Example 252] | 10 to 50 nM |  |
| CNc1cncc(C(=O)N2CCC[C@@H](Nc3c(C(=O)N4CCC[C@@H](C)C4)cc(Br)cc3[N+](=O)[O-])C2)c1 [Example 253] | 50 to 100 nM |  |
| C[C@@H]1CN(C(=O)c2cc(Br)cc([N+](=O)[O-])c2N[C@@H]2CCCN(C(=O)[C@H]3CC(=O)N[C@@H](C)C3)C2)C[C@H](C)O1 [Example 254] | 10 to 50 nM |  |
| CNc1cncc(C(=O)N2CCC[C@@H](Nc3c(C(=O)N4CCC(F)(F)C4)cc(Br)cc3[N+](=O)[O-])C2)c1 [Example 255] | 10 to 50 nM |  |
| CNc1cncc(C(=O)N2CCC[C@@H](Nc3c(C(=O)N4CCC[C@H](C)C4)cc(Br)cc3[N+](=O)[O-])C2)c1 [Example 256] | 10 to 50 nM |  |
| CNc1cncc(C(=O)N2CCC[C@@H](Nc3c(C(=O)N4C[C@@H](C)C[C@H](C)C4)cc(Br)cc3[N+](=O)[O-])C2)c1 [Example 257] | 10 to 50 nM |  |
| CNc1cncc(C(=O)N2CCC[C@@H](Nc3c(C(=O)N4CC(C)CC(O)C4)cc(Br)cc3[N+](=O)[O-])C2)c1 (some centres unmarked) [Example 258] | 10 to 50 nM |  |
| CNc1cncc(C(=O)N[C@H]2CCOC[C@H]2Nc2c(C(=O)N3C[C@@H](C)O[C@H](C)C3)cc(Br)cc2[N+](=O)[O-])c1 [Example 259] | 10 to 50 nM |  |
| CCNc1cncc(C(=O)N2CCC[C@@H](Nc3c(C(=O)N4CCCCC4)cc(Br)cc3[N+](=O)[O-])C2)c1 [Example 260] | 10 to 50 nM |  |
| CSc1cncc(C(=O)N2CCC[C@@H](Nc3c(C(=O)N4CCCCC4)cc(Br)cc3[N+](=O)[O-])C2)c1 [Example 261] | 10 to 50 nM |  |
| C[C@H]1C[C@H](C)CN(C(=O)c2cc(Br)cc([N+](=O)[O-])c2N[C@@H]2CCCN(C(=O)[C@H]3CC(=O)N[C@@H](C)C3)C2)C1 [Example 262] | 10 to 50 nM |  |
| CNc1cncc(C(=O)N2CCC[C@@H](Nc3c(C(=O)N4CC(N)CC(F)(F)C4)cc(Br)cc3[N+](=O)[O-])C2)c1 (some centres unmarked) [Example 263] | 10 to 50 nM |  |
| O=C1C[C@H](C(=O)N2CCC[C@@H](Nc3c(C(=O)N4CCCCC4)cc(Br)cc3[N+](=O)[O-])C2)c2ccccc2N1 [Example 264] | 10 to 50 nM |  |
| O=C1C[C@@H](C(=O)N2CCC[C@@H](Nc3c(C(=O)N4CCCCC4)cc(Br)cc3[N+](=O)[O-])C2)c2ccccc2N1 [Example 265] | 10 to 50 nM |  |
| CNc1cncc(C(=O)N2CCC[C@@H](Nc3c(C(=O)N4CC5CC(C4)O5)cc(Br)cc3[N+](=O)[O-])C2)c1 [Example 266] |  | 10 to 50 nM |
| CNc1cncc(C(=O)N2CCC[C@@H](Nc3c(C(=O)N4CCc5ccsc5C4)cc(Br)cc3[N+](=O)[O-])C2)c1 [Example 267] | 10 to 50 nM |  |
| CNc1cncc(C(=O)N2CCC[C@@H](Nc3c(C(=O)N4CCC5(CCCO5)CC4)cc(Br)cc3[N+](=O)[O-])C2)c1 [Example 268] | < 10 nM |  |
| CNc1cncc(C(=O)N2CCC[C@@H](Nc3c(C(=O)N4CC5CCC(C4)O5)cc(Br)cc3[N+](=O)[O-])C2)c1 [Example 269] | 10 to 50 nM |  |

| Structure (SMILES) | IC50 [1] | IC50 [2] |
| --- | --- | --- |
| CNc1cncc(C(=O)N2CCC[C@@H](Nc3c(C(=O)N4CCC5(CCCCO5)CC4)cc(Br)cc3[N+](=O)[O-])C2)c1 [Example 270] | 10 to 50 nM |  |
| CNc1cncc(C(=O)N2CCC[C@@H](Nc3c(C(=O)N4Cc5cccnc5C4)cc(Br)cc3[N+](=O)[O-])C2)c1 [Example 271] | 10 to 50 nM |  |
| CNc1cncc(C(=O)N2CCC[C@@H](Nc3c(C(=O)N4CCC5(CCNCC5)CC4)cc(Br)cc3[N+](=O)[O-])C2)c1 [Example 272] | 10 to 50 nM |  |
| CNc1cncc(C(=O)N2CCC[C@@H](Nc3c(C(=O)N4CC(F)(F)C(F)(F)C4)cc(Br)cc3[N+](=O)[O-])C2)c1 [Example 273] | 10 to 50 nM |  |
| C[C@@H]1CN(C(=O)c2cc(Br)cc([N+](=O)[O-])c2N[C@@H]2CCCN(C(=O)[C@H]3CC(=O)Nc4ccccc43)C2)C[C@H](C)O1 [Example 274] | < 10 nM |  |
| CNc1cncc(C(=O)N2CCC[C@@H](Nc3c(C(=O)N4CCC(C)(OC)CC4)cc(Br)cc3[N+](=O)[O-])C2)c1 [Example 275] | 10 to 50 nM |  |
| CNc1cncc(C(=O)N2CCC[C@@H](Nc3c(C(=O)N4CC5CCC(C4)N5)cc(Br)cc3[N+](=O)[O-])C2)c1 [Example 276] |  | 10 to 50 nM |
| CNc1cncc(C(=O)N2CCC[C@@H](Nc3c(C(=O)N4CCc5sccc5C4)cc(Br)cc3[N+](=O)[O-])C2)c1 [Example 277] | 10 to 50 nM |  |
| CNc1cncc(C(=O)N2CCC[C@@H](Nc3c(C(=O)N4Cc5c[nH]nc5C4)cc(Br)cc3[N+](=O)[O-])C2)c1 [Example 278] | 10 to 50 nM |  |
| CNc1cncc(C(=O)N2CCC[C@@H](Nc3c(C(=O)N4CCC(F)(F)CC4)cc(Br)cc3[N+](=O)[O-])C2)c1 [Example 279] | 10 to 50 nM |  |
| CNc1cncc(C(=O)N2CCC[C@@H](Nc3c(C(=O)N4CCC5(CCCN5)CC4)cc(Br)cc3[N+](=O)[O-])C2)c1 [Example 280] | 10 to 50 nM |  |
| CNc1cncc(C(=O)N2CCC[C@@H](Nc3c(C(=O)N4CCC(OC)(C(F)(F)F)CC4)cc(Br)cc3[N+](=O)[O-])C2)c1 [Example 281] | 50 to 100 nM |  |
| C[C@@H]1CN(C(=O)c2cc(Br)cc([N+](=O)[O-])c2N[C@@H]2CCCN(C(=O)[C@H]3CC(=O)Nc4ccccc43)C2)CCO1 [Example 282] | 10 to 50 nM |  |
| C[C@H]1CN(C(=O)c2cc(Br)cc([N+](=O)[O-])c2N[C@@H]2CCCN(C(=O)[C@H]3CC(=O)Nc4ccccc43)C2)CCO1 [Example 283] | 10 to 50 nM |  |
| CNc1cncc(C(=O)N2CCC[C@@H](Nc3c(C(=O)N4Cc5cnn(C)c5C4)cc(Br)cc3[N+](=O)[O-])C2)c1 [Example 284] | 10 to 50 nM |  |
| CNc1cncc(C(=O)N2CCC[C@@H](Nc3c(C(=O)N4CCC5(CCO5)CC4)cc(Br)cc3[N+](=O)[O-])C2)c1 [Example 285] | 10 to 50 nM |  |
| CNc1cncc(C(=O)N2CCC[C@@H](Nc3c(C(=O)N4CCO[C@H](C(F)(F)F)C4)cc(Br)cc3[N+](=O)[O-])C2)c1 [Example 286] | 10 to 50 nM |  |
| COCCN1CCN(C(=O)c2cc(Br)cc([N+](=O)[O-])c2N[C@H]2CN(C(=O)c3cncc(Br)c3)CC2(C)O)CC1 (some centres unmarked) [Example 287] | 10 to 50 nM |  |
| CNc1cncc(C(=O)N2CCC[C@@H](Nc3c(C(=O)N4CCO[C@@H](C(F)(F)F)C4)cc(Br)cc3[N+](=O)[O-])C2)c1 [Example 288] | 10 to 50 nM |  |
